The results in this text go back to patent publication US11319303B2 (WIGEN BIOMEDICINE TECHNOLOGY (SHANGHAI) CO., LTD., priority 2017, dated 2022).

The structures appear in SMILES notation.

Usually IC50 stands for the concentration at which inhibition is half-maximal.

The first experiment has as its target LC3B (Homo sapiens, UniProt Q9GZQ8). Nature of the experiment: Fluorescence Polarization (FP) Assay: displacement of FITC-labeled peptide from GST-LC3B. The experiment is classed as binding.
Conditions: not given
As for the experimental part: The compounds of the present invention for regulating the autophagy-related protein LC3B were tested by Fluorescence Polarization (FP) Assay.
Fluorescence Polarization (FP) Assay Test
Turning to `CN(C)CCNC=C1C(=O)CC(c2cccnc2Br)CC1=O` (stereo not drawn) [Compound 338, 5-(2-bromopyridin-3-yl)-2-(((2-(dimethylamino)ethyl)amino)methylene) cyclohexane-1,3-dione], the IC50 is < 3 µM.

On to `CN(C)CCNC=C1C(=O)CC(c2cccc(F)c2Br)CC1=O` (stereo not drawn) [Compound 350, 5-(2-bromo-3-fluorophenyl)-2-(((2-(dimethylamino)ethyl)amino)methylene) cyclohexane-1,3-dione], for which the IC50 was < 3 µM.

The experiment is the same for the next values; noted with them: Fluorescence Polarization assay; GST-LC3B 180 nM, FITC-labeled peptide 18 nM, 25° C.; read-out: IC50.
With `O=C1CC(c2cccc3[nH]cc(Cl)c23)CC(=O)C1=CNCCN1CCN(CCO)CC1` (stereo not drawn) [Compound 322, 5-(3-chloro-1H-indol-4-yl)-2-(((2-(4-(2-hydroxyethyl)piperazin-1-yl)ethyl)amino)methylene) cyclohexane-1,3-dione], the IC50 was < 3 µM.

With `O=C1CC(c2ccccc2)C(c2ccccc2)C(=O)C1=CNCCN1CCN(CCO)CC1` (stereo not drawn) [Compound 323, 2-(((2-(4-(2-hydroxyethyl)piperazin-1-yl)ethyl)amino)methylene)-4,5-diphenylcyclo-hexane-1,3-dione], the IC50 lay in the range of 3 to 15 µM.

Regarding `CC1(C)C(=O)C(=CNCCN2CCN(CCO)CC2)C(=O)CC1c1ccccc1` (stereo not drawn) [Compound 324, 2-(((2-(4-(2-hydroxyethyl)piperazin-1-yl)ethyl)amino)methylene)-4,4-dimethyl-5-phenylcyclohexane-1,3-dione], the IC50 was 3 to 15 µM.

Consider `CC1C(=O)/C(=C/NCCN2CCN(CCO)CC2)C(=O)CC1(O)c1ccccc1` (stereo not drawn) [Compound 325, 5-hydroxy-2-(((2-(4-(2-hydroxyethyl)piperazin-1-yl)ethyl)amino)methylene)-4-methyl-5-phenylcyclohexane-1,3-dione], for which the IC50 lay in the range of 15 to 100 µM.

In the case of `O=C(NCCN1CCN(CCO)CC1)C1C(=O)Nc2ccccc2C1=O` (stereo not drawn) [Compound 326, N-(2-(4-(2-hydroxyethyl)piperazin-1-yl)ethyl)-2,4-dioxo-1,2,3,4-tetrahydroquinoline-3-carboxamide], the IC50 lay in the range of 100 to 1000 µM.

As for `N#CC1C(=O)C(=CNCCN2CCN(CCO)CC2)C(=O)CC1c1ccccc1` (stereo not drawn) [Compound 327, 2-(((2-(4-(2-hydroxyethyl)piperazin-1-yl)ethyl)amino)methylene)-4-cyano-5-phenylcyclohexane-1,3-dione], the IC50 was < 3 µM.

Regarding `O=C1Nc2ccc(-c3ccccc3)cc2C(=O)/C1=C/NCCN1CCN(CCO)CC1` [Compound 328, 3-(((2-(4-(2-hydroxyethyl)piperazin-1-yl)ethyl)amino)methylene)-6-phenylquinoline-2,4(1H,3H)-dione], the IC50 was 3 to 15 µM.

With `Cc1ccc(C2CC(=O)C(=CNCCN3CCN(CCO)CC3)C(=O)C2)c(Br)c1` (stereo not drawn) [Compound 329, 5-(2-bromo-4-methylphenyl)-2-(((2-(4-(2-hydroxyethyl)piperazin-1-yl)ethyl)amino)methylene) cyclohexane-1,3-dione], the IC50 is < 3 µM.

For `CCOC(=O)C1C(=O)/C(=C\NCCN2CCN(CCO)CC2)C(=O)CC1c1cccc2[nH]ccc12` (stereo not drawn) [Compound 330, ethyl 3-(((2-(4-(2-hydroxyethyl)piperazin-1-yl)ethyl)amino)methylene)-6-(1H-indol-4-yl)-2,4-dioxocyclohexane-1-carboxylate], the IC50 lay within 3 to 15 µM.

Regarding `O=C1Nc2c(ccc3ccccc23)C(=O)/C1=C\NCCN1CCN(CCO)CC1` [Compound 331, 3-(((2-(4-(2-hydroxyethyl)piperazin-1-yl)ethyl)amino)methylene) benzo[h]quinoline-2,4(1H,3H)-dione], the IC50 was < 3 µM.

As to `CN(C)c1ccc(Br)c(C2CC(=O)C(=CNCCN3CCN(CCO)CC3)C(=O)C2)c1` (stereo not drawn) [Compound 332, 5-(2-bromo-5-(dimethylamino)phenyl)-2-(((2-(4-(2-hydroxyethyl)piperazin-1-yl)ethyl)amino)methylene) cyclohexane-1,3-dione], the IC50 was < 3 µM.

Turning to `NC(=O)C1C(=O)C(=CNCCN2CCN(CCO)CC2)C(=O)CC1c1ccccc1` (stereo not drawn) [Compound 333, 3-(((2-(4-(2-hydroxyethyl)piperazin-1-yl)ethyl)amino)methylene)-2,4-dioxo-6-phenylcyclohexane-1-carboxamide], the IC50 is 15 to 100 µM.

`CC(C)(C)OC(=O)C1C(=O)C(=CNCCN2CCN(CCO)CC2)C(=O)CC1c1ccccc1` (stereo not drawn) [Compound 334, tert-butyl 3-(((2-(4-(2-hydroxyethyl)piperazin-1-yl)ethyl)amino)methylene)-2,4-dioxo-6-phenylcyclohexane-1-carboxylate]: the IC50 was 3 to 15 µM.

In the case of `CCOC(=O)C1C(=O)C(=CNCCN2CCN(CCO)CC2)C(=O)CC1c1ccccc1` (stereo not drawn) [Compound 335, ethyl 3-(((2-(4-(2-hydroxyethyl)piperazin-1-yl)ethyl)amino)methylene)-2,4-dioxo-6-phenylcyclohexane-1-carboxylate], the IC50 lay in the range of 3 to 15 µM.

In the case of `CC1(C#N)C(=O)C(=CNCCN2CCN(CCO)CC2)C(=O)CC1c1ccccc1` (stereo not drawn) [Compound 336, 3-(((2-(4-(2-hydroxyethyl)piperazin-1-yl)ethyl)amino)methylene)-1-methyl-2,4-dioxo-6-phenylcyclohexane-1-carbonitrile], the IC50 is 3 to 15 µM.

For `COc1cccc(C2CC(=O)C(=CNCCN(C)C)C(=O)C2)c1` (stereo not drawn) [Compound 337, 2-(((2-(dimethylamino)ethyl)amino)methylene)-5-(3-methoxyphenyl) cyclohexane-1,3-dione], the IC50 was < 3 µM.

For `CN(C)CCNC=C1C(=O)CC(c2ccc([N+](=O)[O-])cc2)CC1=O` (stereo not drawn) [Compound 340, 2-(((2-(dimethylamino)ethyl)amino)methylene)-5-(4-nitrophenyl) cyclohexane-1,3-dione], the IC50 was < 3 µM.

As to `CN(C)CCNC=C1C(=O)CC(C(=O)Nc2ccccc2)CC1=O` (stereo not drawn) [Compound 343, 4-(((2-(dimethylamino)ethyl)amino)methylene)-3,5-dioxo-N-phenylcyclohexane-1-carboxamide], the IC50 fell in the range of 3 to 15 µM.

In the case of `CN(C)CCNC=C1C(=O)CC(c2ccccc2N2CCOCC2)CC1=O` (stereo not drawn) [Compound 344], the 50% inhibitory concentration (IC50) was 3 to 15 µM.

As to `CC(=O)Nc1ccccc1C1CC(=O)C(=CNCCN(C)C)C(=O)C1` (stereo not drawn) [Compound 345, N-(2-(4-(((2-(dimethylamino)ethyl)amino)methylene)-3,5-dioxocyclohexyl)phenyl) acetamide], the IC50 was in the range of 3 to 15 µM.

As to `CN(C)CCNC=C1C(=O)CC(c2cc(F)ccc2Br)CC1=O` (stereo not drawn) [Compound 349, 5-(2-bromo-5-fluorophenyl)-2-(((2-(dimethylamino)ethyl)amino)methylene) cyclohexane-1,3-dione], the IC50 is < 3 µM.

For the compound `CN(C)CCNC=C1C(=O)CC(c2cc(F)ccc2Cl)CC1=O` (stereo not drawn) [Compound 351, 5-(2-chloro-5-fluorophenyl)-2-(((2-(dimethylamino)ethyl)amino)methylene) cyclohexane-1,3-dione], the IC50 was < 3 µM.

As to `O=C1CCCCC(=O)C1=CNCCN1CCN(CCO)CC1` [Compound 352, 2-(((2-(4-(2-hydroxyethyl)piperazin-1-yl)ethyl)amino)methylene) cycloheptane-1,3-dione], the 50% inhibitory concentration (IC50) was in the range of 100 to 1000 µM.

With `O=C1CC(c2cccc3[nH]cc(-c4ccccc4)c23)CC(=O)C1=CNCCN1CCN(CCO)CC1` (stereo not drawn) [Compound 353, 2-(((2-(4-(2-hydroxyethyl)piperazin-1-yl)ethyl)amino)methylene)-5-(3-phenyl-1H-indol-4-yl)cyclohexane-1,3-dione], the IC50 was < 3 µM.

For `O=C1Nc2cc(C(F)(F)F)ccc2C(=O)/C1=C\NCCN1CCN(CCO)CC1` [Compound 354, 3-(((2-(4-(2-hydroxyethyl)piperazin-1-yl)ethyl)amino)methylene)-7-(trifluoromethyl) quinoline-2,4(1H,3H)-dione], the IC50 is < 3 µM.

Turning to `O=C1CC(c2ccccc2)CC(=O)C1=CNc1cccc2c1CNC2=O` (stereo not drawn) [Compound 355, 2-(((1-oxoisoindolin-4-yl)amino)methylene)-5-phenylcyclohexane-1,3-dione], the IC50 was < 3 µM.

On to `CN(C)CCNC=C1C(=O)CC(c2c(Cl)cccc2C(F)(F)F)CC1=O` (stereo not drawn) [Compound 358, 5-(2-chloro-6-(trifluoromethyl)phenyl)-2-(((2-(dimethylamino)ethyl)amino)methylene) cyclohexane-1,3-dione], for which the IC50 was < 3 µM.

`CN(C)CCNC=C1C(=O)CC(C(=O)NCc2ccccc2)CC1=O` (stereo not drawn) [Compound 359, N-benzyl-4-(((2-(dimethylamino)ethyl)amino)methylene)-3,5-dioxocyclohexane-1-carboxamide]: the IC50 was in the range of 15 to 100 µM.

For the compound `CN(C)CCNC=C1C(=O)CC(C(=O)Nc2ccc(Br)cc2)CC1=O` (stereo not drawn) [Compound 360, N-(4-bromophenyl)-4-(((2-(dimethylamino)ethyl)amino)methylene)-3,5-dioxocyclohexane-1-carboxamide], the IC50 was in the range of 3 to 15 µM.

In the case of `CN(C)CCNC=C1C(=O)CC(c2c(F)cccc2Cl)CC1=O` (stereo not drawn) [Compound 361, 5-(2-chloro-6-fluorophenyl)-2-(((2-(dimethylamino)ethyl)amino)methylene) cyclohexane-1,3-dione], the IC50 was < 3 µM.

Regarding `CN(C)CCNC=C1C(=O)CC(c2cc(C(F)(F)F)ccc2Br)CC1=O` (stereo not drawn) [Compound 362, 5-(2-bromo-5-(trifluoromethyl)phenyl)-2-(((2-(dimethylamino)ethyl)amino)methylene) cyclohexane-1,3-dione], the IC50 is < 3 µM.

Consider `CN(C)CCNC=C1C(=O)CC(C(=O)Nc2ccc(Cl)cc2)CC1=O` (stereo not drawn) [Compound 363, N-(4-chlorophenyl)-4-(((2-(dimethylamino)ethyl)amino)methylene)-3,5-dioxocyclohexane-1-carboxamide], for which the IC50 lay within 3 to 15 µM.

For `CN(C)CCNC=C1C(=O)CC(c2cc(Cl)cc(Cl)c2Cl)CC1=O` (stereo not drawn) [Compound 364, 2-(((2-(dimethylamino)ethyl)amino)methylene)-5-(2,3,5-trichlorophenyl) cyclohexane-1,3-dione], the IC50 is < 3 µM.

As to `CN(C)CCNC=C1C(=O)CC(c2ccc(Br)s2)CC1=O` (stereo not drawn) [Compound 366, 5-(5-bromothiophen-2-yl)-2-(((2-(dimethylamino)ethyl)amino)methylene) cyclohexane-1,3-dione], the IC50 was < 3 µM.
